In US20030095958A1, “Inhibitors of bace” (priority 2001, published 2003) one finds Ki data, which are given here for 24 compounds.

This experiment addresses BACE (Homo sapiens, UniProt P56817). The experiment is described as follows: Ki Determination for the Inhibition of BACE (FS-1 peptide fluorescence cleavage assay). The format is biochemical. The settings on record: apparent Ki; 50 nM BACE, 10 μM FS-1 substrate, 0.1M sodium acetate pH 4.5. The method, boiled down: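 Apparent Ki values derive from fitting fluorescence progress data (355 nm excitation, 495 nm emission) of FS-1 peptide cleavage to an integrated competitive tight-binding model. Reactions held 50 nM BACE, 10 μM substrate and inhibitor in 2% DMSO, pH 4.5 acetate buffer, with a 15 min enzyme-compound preincubation at room temperature.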

BACE, sequence (P56817 46-501): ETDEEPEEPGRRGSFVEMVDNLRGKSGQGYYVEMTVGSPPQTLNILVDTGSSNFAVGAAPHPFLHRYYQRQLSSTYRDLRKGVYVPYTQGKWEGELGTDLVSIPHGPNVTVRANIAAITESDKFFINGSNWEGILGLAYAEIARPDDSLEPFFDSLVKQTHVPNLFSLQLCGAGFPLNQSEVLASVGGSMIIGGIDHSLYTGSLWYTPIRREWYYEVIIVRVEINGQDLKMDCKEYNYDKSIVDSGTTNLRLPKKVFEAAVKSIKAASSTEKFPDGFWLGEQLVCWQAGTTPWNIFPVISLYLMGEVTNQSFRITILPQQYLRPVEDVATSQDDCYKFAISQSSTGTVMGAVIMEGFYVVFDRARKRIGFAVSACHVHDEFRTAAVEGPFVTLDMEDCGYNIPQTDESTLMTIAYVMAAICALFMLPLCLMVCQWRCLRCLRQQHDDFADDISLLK

Take `O=[N+]([O-])c1ccccc1-c1cc(COc2ccccc2C(F)(F)F)c(C2=CCNCC2)cc1COc1ccccc1C(F)(F)F` [Compound 344, 4-[2′-Nitro-2,5-bis-(2-trifluoromethyl-phenoxymethyl)-biphenyl-4-yl]-1,2,3,6-tetrahydro-pyridine]: the Ki is less than 3 µM. As for `FC(F)(F)c1ccccc1OCc1cc(-c2cccs2)c(COc2ccccc2C(F)(F)F)cc1C1=CCNCC1` [Compound 345, 4-[4-Thiophen-2-yl-2,5-bis-(2-trifluoromethyl-phenoxymethyl)-phenyl]-1,2,3,6-tetrahydro-pyridine], the figure is less than 3 µM; as for `FC(F)(F)c1ccccc1OCc1cc(-c2ccco2)c(COc2ccccc2C(F)(F)F)cc1C1=CCNCC1` [Compound 346, 4-[4-Furan-2-yl-2,5-bis-(2-trifluoromethyl-phenoxymethyl)-phenyl]-1,2,3,6-tetrahydro-pyridine], less than 3 µM; as for `Fc1ccccc1-c1cc(COc2ccccc2C(F)(F)F)c(C2=CCNCC2)cc1COc1ccccc1C(F)(F)F` [Compound 347, 4-[2′-Fluoro-2,5-bis-(2-trifluoromethyl-phenoxymethyl)-biphenyl-4-yl]-1,2,3,6-tetrahydro-pyridine], less than 3 µM. As for `FC(F)(F)c1ccccc1OCc1cc(-c2ccccc2Cl)c(COc2ccccc2C(F)(F)F)cc1C1=CCNCC1` [Compound 348, 4-[2′-Chloro-2,5-bis-(2-trifluoromethyl-phenoxymethyl)-biphenyl-4-yl]-1,2,3,6-tetrahydro-pyridine], the Ki was less than 3 µM. As for `Fc1cccc(F)c1-c1cc(COc2ccccc2C(F)(F)F)c(C2=CCNCC2)cc1COc1ccccc1C(F)(F)F` [Compound 349, 4-[2′,6′-Difluoro-2,5-bis-(2-trifluoromethyl-phenoxymethyl)-biphenyl-4-yl]-1,2,3,6-tetrahydro-pyridine], the figure is less than 3 µM.

Consider `CC(=O)c1ccccc1-c1cc(COc2ccccc2C(F)(F)F)c(C2=CCNCC2)cc1COc1ccccc1C(F)(F)F` [Compound 350, 1-[4′-(1,2,3,6-Tetrahydro-pyridin-4-yl)-2′,5′-bis-(2-trifluoromethyl-phenoxymethyl)-biphenyl-2-yl]-ethanone], for which the Ki is less than 3 µM.

Turning to `Oc1cccc(-c2cc(COc3ccccc3C(F)(F)F)c(C3=CCNCC3)cc2COc2ccccc2C(F)(F)F)c1` [Compound 351, 4′-(1,2,3,6-Tetrahydro-pyridin-4-yl)-2′,5′-bis-(2-trifluoromethyl-phenoxymethyl)-biphenyl-3-ol], the Ki was less than 3 µM.

Consider `Oc1ccc(-c2cc(COc3ccccc3C(F)(F)F)c(C3=CCNCC3)cc2COc2ccccc2C(F)(F)F)cc1` [Compound 352, 4′-(1,2,3,6-Tetrahydro-pyridin-4-yl)-2′,5′-bis-(2-trifluoromethyl-phenoxymethyl)-biphenyl-4-ol], for which the Ki is less than 3 µM. As for `O=[N+]([O-])c1cccc(-c2cc(COc3ccccc3C(F)(F)F)c(C3=CCNCC3)cc2COc2ccccc2C(F)(F)F)c1` [Compound 353, 4-[3′-Nitro-2,5-bis-(2-trifluoromethyl-phenoxymethyl)-biphenyl-4-yl]-1,2,3,6-tetrahydro-pyridine], the figure is less than 3 µM; as for `O=[N+]([O-])c1ccc(-c2cc(COc3ccccc3C(F)(F)F)c(C3=CCNCC3)cc2COc2ccccc2C(F)(F)F)cc1` [Compound 354, 4-[4′-Nitro-2,5-bis-(2-trifluoromethyl-phenoxymethyl)-biphenyl-4-yl]-1,2,3,6-tetrahydro-pyridine], less than 3 µM. On to `CC(O)c1ccccc1-c1cc(COc2ccccc2C(F)(F)F)c(C2=CCNCC2)cc1COc1ccccc1C(F)(F)F` (stereo not drawn) [Compound 355, 1-[4′-(1,2,3,6-Tetrahydro-pyridin-4-yl)-2′,5′-bis-(2-trifluoromethyl-phenoxymethyl)-biphenyl-2-yl]-ethanol], for which the Ki is less than 3 µM. As for `FC(F)(F)c1ccccc1OCc1cc(COc2ccccc2C(F)(F)F)c(C2=CCNCC2)cc1COc1ccccc1C(F)(F)F` [Compound 356, 4-[2,4,5-Tris-(2-trifluoromethyl-phenoxymethyl)-phenyl]-1,2,3,6-tetrahydro-pyridine], the figure is less than 3 µM; as for `FC(F)(F)c1ccccc1OCc1cc(-c2cc3ccccc3o2)c(COc2ccccc2C(F)(F)F)cc1C1=CCNCC1` [Compound 357, 4-[4-Benzofuran-2-yl-2,5-bis-(2-trifluoromethyl-phenoxymethyl)-phenyl]-1,2,3,6-tetrahydro-pyridine], less than 3 µM.

As to `FC(F)(F)c1ccccc1OCc1cc(-c2ccc[nH]2)c(COc2ccccc2C(F)(F)F)cc1C1=CCNCC1` [Compound 358, 4-[4-(1H-Pyrrol-2-yl)-2,5-bis-(2-trifluoromethyl-phenoxymethyl)-phenyl]-1,2,3,6-tetrahydro-pyridine], the Ki was less than 3 µM. As for `Nc1ccc(-c2cc(COc3ccccc3C(F)(F)F)c(C3=CCNCC3)cc2COc2ccccc2C(F)(F)F)cc1` [Compound 359, 4′-(1,2,3,6-Tetrahydro-pyridin-4-yl)-2′,5′-bis-(2-trifluoromethyl-phenoxymethyl)-biphenyl-4-ylamine], the figure is less than 3 µM.

As to `FC(F)(F)c1ccccc1OCc1cc(-c2ccccc2)ccc1C1=CCNCC1` [Compound 360, 4-[3-(2-Trifluoromethyl-phenoxymethyl)-biphenyl-4-yl]-1,2,3,6-tetrahydro-pyridine], the Ki is less than 3 µM. As for `Oc1ccc(-c2ccc(C3=CCNCC3)c(COc3ccccc3C(F)(F)F)c2)cc1` [Compound 361, 4′-(1,2,3,6-Tetrahydro-pyridin-4-yl)-3′-(2-trifluoromethyl-phenoxymethyl)-biphenyl-4-ol], the figure is 3 to 30 µM; as for `Oc1ccccc1-c1ccc(C2=CCNCC2)c(COc2ccccc2C(F)(F)F)c1` [Compound 362, 4′-(1,2,3,6-Tetrahydro-pyridin-4-yl)-3′-(2-trifluoromethyl-phenoxymethyl)-biphenyl-2-ol], 3 to 30 µM; as for `FC(F)(F)c1ccccc1OCc1cc(-c2ccoc2)ccc1C1=CCNCC1` [Compound 363, 4-[4-Furan-3-yl-2-(2-trifluoromethyl-phenoxymethyl)-phenyl]-1,2,3,6-tetrahydro-pyridine], 3 to 30 µM. As for `NC(=O)c1cccc(-c2cc(COc3ccccc3C(F)(F)F)c(C3=CCNCC3)cc2COc2ccccc2C(F)(F)F)c1` [Compound 364, 4′-(1,2,3,6-Tetrahydro-pyridin-4-yl)-2′,5′-bis-(2-trifluoromethyl-phenoxymethyl)-biphenyl-3-carboxylic acid amide], the figure is less than 3 µM.

In the case of `COc1ccc(-c2cc(COc3ccccc3C(F)(F)F)c(C3=CCNCC3)cc2COc2ccccc2C(F)(F)F)cc1` [Compound 365, 4-[4′-Methoxy-2,5-bis-(2-trifluoromethyl-phenoxymethyl)-biphenyl-4-yl]-1,2,3,6-tetrahydro-pyridine], the Ki is less than 3 µM. As for `OCc1ccc(-c2cc(COc3ccccc3C(F)(F)F)c(C3=CCNCC3)cc2COc2ccccc2C(F)(F)F)cc1` [Compound 366, [4′-(1,2,3,6-Tetrahydro-pyridin-4-yl)-2′,5′-bis-(2-trifluoromethyl-phenoxymethyl)-biphenyl-4-yl]-methanol], the figure is less than 3 µM; as for `OCc1ccccc1-c1cc(COc2ccccc2C(F)(F)F)c(C2=CCNCC2)cc1COc1ccccc1C(F)(F)F` [Compound 367, [4′-(1,2,3,6-Tetrahydro-pyridin-4-yl)-2′,5′-bis-(2-trifluoromethyl-phenoxymethyl)-biphenyl-2-yl]-methanol], less than 3 µM.
